Several values for one entry are separate records, joined by “and”; a condition that tells them apart may be missing. Equal values may be shown once.
Key:
Format in all cases: cell-based
[1] = biological target: Sodium-dependent dopamine transporter (Homo sapiens) (UniProt Q01959); experiment: Inhibition of radioligand [125I]RTI-55 binding to human Dopamine transporter in clonal cells
[2] = biological target: Sodium-dependent serotonin transporter (Homo sapiens) (UniProt P31645); experiment: Inhibition of [125I]RTI-55 binding to human SERT in clonal cells
Chain of Sodium-dependent serotonin transporter (Homo sapiens) (P31645 whole entry, looked up): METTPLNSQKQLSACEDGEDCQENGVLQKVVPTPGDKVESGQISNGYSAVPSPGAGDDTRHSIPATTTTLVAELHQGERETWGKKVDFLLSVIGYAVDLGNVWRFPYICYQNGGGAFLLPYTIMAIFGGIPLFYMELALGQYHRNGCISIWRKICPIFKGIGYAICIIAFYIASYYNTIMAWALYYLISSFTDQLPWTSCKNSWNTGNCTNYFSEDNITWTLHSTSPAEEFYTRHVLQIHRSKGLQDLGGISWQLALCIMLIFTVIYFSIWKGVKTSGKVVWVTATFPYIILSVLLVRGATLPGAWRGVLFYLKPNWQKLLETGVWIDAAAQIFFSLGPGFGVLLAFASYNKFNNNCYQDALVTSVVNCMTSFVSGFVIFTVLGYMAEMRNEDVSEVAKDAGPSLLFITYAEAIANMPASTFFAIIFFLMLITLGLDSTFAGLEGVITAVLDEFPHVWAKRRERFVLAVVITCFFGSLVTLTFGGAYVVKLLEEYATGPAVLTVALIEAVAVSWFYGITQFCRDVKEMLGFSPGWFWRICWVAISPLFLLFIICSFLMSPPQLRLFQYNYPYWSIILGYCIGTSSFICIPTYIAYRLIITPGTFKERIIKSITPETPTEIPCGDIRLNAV

[3] = biological target: Sodium-dependent dopamine transporter (Homo sapiens) (UniProt Q01959); experiment: Inhibition of [3H]dopamine uptake in HEK293 cells expressing recombinant Dopamine transporter

Chain of Sodium-dependent dopamine transporter (Homo sapiens) (Q01959 whole entry): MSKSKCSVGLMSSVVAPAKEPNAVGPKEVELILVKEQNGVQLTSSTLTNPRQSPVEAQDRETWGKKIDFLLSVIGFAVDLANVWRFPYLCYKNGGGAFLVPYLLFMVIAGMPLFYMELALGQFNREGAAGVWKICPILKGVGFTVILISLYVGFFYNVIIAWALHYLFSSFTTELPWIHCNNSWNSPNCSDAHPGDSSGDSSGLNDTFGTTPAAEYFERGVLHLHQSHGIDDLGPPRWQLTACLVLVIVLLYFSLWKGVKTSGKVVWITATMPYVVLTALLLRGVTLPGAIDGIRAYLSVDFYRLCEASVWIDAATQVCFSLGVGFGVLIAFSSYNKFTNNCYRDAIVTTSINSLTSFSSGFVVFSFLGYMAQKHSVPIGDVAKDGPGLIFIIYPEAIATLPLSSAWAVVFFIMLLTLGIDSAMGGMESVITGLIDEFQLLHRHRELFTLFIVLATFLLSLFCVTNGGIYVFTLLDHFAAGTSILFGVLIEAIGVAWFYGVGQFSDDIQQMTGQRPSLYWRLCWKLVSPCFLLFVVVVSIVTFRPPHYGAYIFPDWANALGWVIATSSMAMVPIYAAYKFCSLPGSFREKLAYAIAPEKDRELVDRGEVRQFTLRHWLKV

| SMILES | pKD [1] | pKD [2] | Log 1/C [3] |
| --- | --- | --- | --- |
| Brc1ccc(CN(CCN2CCN(CCCc3ccccc3)CC2)c2ccc(Br)cc2)cc1 | 6.01 | 5.79 | – |
| Fc1ccc(C(OCCN2CCN(CCCc3ccccc3)CC2)c2ccccc2)cc1 (stereo not drawn) | 7.69 | 6.21 | 7.8 |
| Fc1ccc(C(OCCN2CCN(C/C=C/Cc3ccccc3)CC2)c2ccc(F)cc2)cc1 | 8.29 | 7.14 | 6.86 |
| COc1ccc(OC)c(/C=C/CN2CCN(CCOC(c3ccc(F)cc3)c3ccc(F)cc3)CC2)c1 | 8.42 | 6.74 | 6.43 |
| COc1ccc(/C=C/C(=O)N2CCN(CCOC(c3ccc(F)cc3)c3ccc(F)cc3)CC2)cc1 | 6.31 | 6.85 | 5.87 |
| O=C(/C=C/c1c(Cl)cccc1Cl)N1CCN(CCOC(c2ccc(F)cc2)c2ccc(F)cc2)CC1 | 5.82 | 6.68 | – |
| Fc1ccc(CN(CCN2CCN(CCCc3ccccc3)CC2)c2ccc(F)cc2)cc1 | 7.28 | 6.57 | – |
| O=C(CCCN1CCN(CCCc2ccccc2)CC1)N(Cc1ccccc1)c1ccccn1 | 6.25 | 5.88 | 6.61 |
| Fc1ccc(CCCN2CCN(CCOC(c3ccccc3)c3ccccc3)CC2)cc1 | 7.4 | 5.74 | 6.41 |
| COc1ccc(CN(CCCN2CCN(CCCc3ccccc3)CC2)c2ccccn2)cc1 | 7.8 | 7.23 | 7.08 |
| Fc1ccc(C(OCCN2CCN(C/C=C/c3ccc(Cl)cc3)CC2)c2ccc(F)cc2)cc1 | 7.65 | 6.09 | 6.66 |
| O=C(/C=C/c1ccc(Cl)cc1)N1CCN(CCOC(c2ccc(F)cc2)c2ccc(F)cc2)CC1 | 6.37 | 7.14 | 5.44 |
| c1ccc(CCCN2CCN(CCCN(Cc3ccccc3)c3ccccc3)CC2)cc1 | – | – | 6.07 and 5.83 |
| Fc1ccc(C(OCCN2CCN(C/C=C/c3ccccc3)CC2)c2ccc(F)cc2)cc1 (stereo in doubt; 15) | 8.11 | 6.44 | 7.08 |
| COc1ccc(/C=C/CN2CCN(CCOC(c3ccc(F)cc3)c3ccc(F)cc3)CC2)cc1 | 7.19 | 6.43 | 6.47 |
| c1ccc(CCCN2CCN(CCCCCN(Cc3ccccc3)c3ccccc3)CC2)cc1 | 7.5 | 6.63 | 5.83 |
| COc1ccc(N(CCN2CCN(C/C=C/c3ccccc3)CC2)Cc2ccccc2)cc1 | – | 6.55 | – |
| c1ccc(CCCN2CCN(CCN(Cc3ccccc3)c3ccccc3)CC2)cc1 | 6.66 | 5.92 | 5.96 |
| COc1ccc(CN(CCN2CCN(C/C=C/c3ccccc3)CC2)c2ccccn2)cc1 | 5.66 | 6.64 | – |
| Fc1ccc(C(OCCN2CCN(C/C=C/c3ccccc3)CC2)c2ccc(Cl)cc2)cc1 (stereo not drawn) | 8.41 | 6.72 | 6.7 |
| COc1ccc(OC)c(/C=C/C(=O)N2CCN(CCOC(c3ccc(F)cc3)c3ccc(F)cc3)CC2)c1 | 6.25 | 6.69 | – |
| Fc1ccc(CN(CCCN2CCN(CCCc3ccccc3)CC2)c2ccccn2)cc1 | 7.95 | 6.55 | 6.91 |
| COc1ccc(N(CCN2CCN(CCCc3ccccc3)CC2)Cc2ccccc2)cc1 | 6.04 | 6.59 | 6.67 |
| O=C(CCCN1CCN(CCCc2ccccc2)CC1)N(Cc1ccccc1)c1ccccc1 | 7.56 | 6.28 | 7.12 |
| Fc1ccc(/C=C/CN2CCN(CCOC(c3ccccc3)c3ccc(F)cc3)CC2)cc1 (stereo not drawn) | 7.64 | 6.7 | 7.22 |
| O=C(CCCCN1CCN(CCCc2ccccc2)CC1)N(Cc1ccccc1)c1ccccc1 | 7.24 | 6.69 | 6.92 |
| Cc1ccc(CN(CCN2CCN(CCCc3ccccc3)CC2)c2ccccc2)cc1 | 6.37 | 6.09 | 5.49 |

| SMILES | pKD [1] | pKD [2] | Log 1/C [3] |
| --- | --- | --- | --- |
| Fc1ccc(CN(CCCN2CCN(CCCc3ccccc3)CC2)c2ccc(F)cc2)cc1 | 7.86 | 6.48 | 6.82 |
| Fc1ccc(CCCN2CCN(CCOC(c3ccc(F)cc3)c3ccc(F)cc3)CC2)cc1 | 8.25 | 6.44 | 6.42 |
| Cc1ccc(C(OCCN2CCN(C/C=C/c3ccccc3)CC2)c2ccccc2)cc1 (stereo not drawn) | 6.95 | 5.95 | 6.78 |
| Clc1ccc(C(OCCN2CCN(C/C=C/c3ccccc3)CC2)c2ccc(Cl)cc2)cc1 | 7.42 | 6.48 | 6.62 |
| Fc1ccc(C(OCCN2CCN(C/C=C/c3ccccc3)CC2)c2ccc(F)cc2)cc1 (stereo in doubt; 24) | 7.76 | 7.79 | 8.38 |
| COc1ccc(CN(CCN2CCN(CCCc3ccccc3)CC2)c2ccccn2)cc1 | 6.66 | 6.79 | 6.57 |
| O=C(CN1CCN(CCCc2ccccc2)CC1)N(Cc1ccccc1)c1ccccc1 | 5.97 | 5.54 | 6.28 |
| c1ccc(CCCN2CCN(CCCCN(Cc3ccccc3)c3ccccc3)CC2)cc1 | 7.86 | 6.88 | 5.76 |
| Cc1ccc(/C=C/C(=O)N2CCN(CCOC(c3ccc(F)cc3)c3ccc(F)cc3)CC2)cc1 | 6.1 | 6.71 | 5.21 |
| Fc1ccc(/C=C/CN2CCN(CCOC(c3ccccc3)c3ccccc3)CC2)cc1 | 7.8 | 5.88 | 7.26 |
| Fc1ccc(C(OCCN2CCN(C/C=C/c3ccccc3)CC2)c2ccccc2)cc1 (stereo not drawn) | 7.48 | 6.67 | 7.1 |
| Fc1ccc(CN(CCN2CCN(CCCc3ccccc3)CC2)c2ccccn2)cc1 | 7.19 | 6.64 | 6.24 |
| Fc1ccc(C(OCCN2CCN(Cc3ccccc3)CC2)c2ccc(F)cc2)cc1 | 7.01 | 6.74 | 6.12 |
| Fc1ccc(/C=C/CN2CCN(CCOC(c3ccc(F)cc3)c3ccc(F)cc3)CC2)cc1 | 8.41 | 6.64 | 6.96 |
| Fc1ccc(CCCN2CCN(CCOC(c3ccccc3)c3ccc(F)cc3)CC2)cc1 (stereo not drawn) | 7.51 | 6.33 | 7.49 |
| Fc1ccc(C(OCCN2CCN(CCCc3ccc(Cl)cc3)CC2)c2ccc(F)cc2)cc1 | 8.09 | 6.81 | 7.3 |
| O=C(/C=C/c1ccccc1Cl)N1CCN(CCOC(c2ccc(F)cc2)c2ccc(F)cc2)CC1 | 6.14 | 6.77 | 5.24 |
| c1ccc(CCCN2CCN(CCN(Cc3ccccc3)c3ccccn3)CC2)cc1 | 7.04 | 6.28 | 6.91 |
| COc1cccc(C(OCCN2CCN(C/C=C/c3ccccc3)CC2)c2cccc(Br)c2)c1 (stereo not drawn) | 6.88 | 6.13 | 6.05 |
| COc1ccc(C(OCCN2CCN(C/C=C/c3ccccc3)CC2)c2ccccc2)cc1 (stereo not drawn) | – | 6.16 | – |
| Fc1ccc(C(OCCN2CCN(C/C=C/c3ccccc3)CC2)c2ccc(Cl)cc2Cl)cc1 (stereo not drawn) | 7.18 | 6.28 | 5.86 |
| Fc1ccc(C(OCCN2CCN(C/C=C/c3ccccc3)CC2)c2ccc(F)cc2)cc1 (stereo in doubt; 26) | 6.39 | 6.02 | 6.97 |
| C(=C\c1ccccc1)/CN1CCN(CCN(Cc2ccccc2)c2ccccn2)CC1 | 6 | 6.17 | 6.1 |
| C(=C\c1ccccc1)/CN1CCN(CCN(Cc2ccccc2)c2ccccc2)CC1 | 6.35 | 6.22 | 6.74 |
| Cc1ccc(/C=C/CN2CCN(CCOC(c3ccc(F)cc3)c3ccc(F)cc3)CC2)cc1 | 7.32 | 6.18 | 6.43 |
| CN(CCc1ccccc1)CCN1CCN(CCCc2ccccc2)CC1 | 6.26 | 5.58 | 6.85 |

— ChEMBL document CHEMBL1135912, “GBR compounds and mepyramines as cocaine abuse therapeutics: chemometric studies on selectivity using grid independent descriptors (GRIND)” (J Med Chem, 2002)
